Consider two compounds from ChEMBL document CHEMBL1139930, “Solvatochromism, DNA binding, antitumor activity and molecular modeling study of mixed-ligand copper(II) complexes containing the bulky ligand: bis[N-(p-tolyl)imino]acenaphthene” (Eur J Med Chem, 2007).

SMILES strings stand for the structures. Converted amounts (≈) assume the structure as drawn.

Experiment [1] is described as follows: Displacement of methyl green from DNA. Also on record: species or system Homo sapiens.
Experiment [2] has as its system Ehrlich. As to the kind of experiment: Antitumor activity against Ehrlich ascites carcinoma cells in mouse assessed as increase in life span at 20 mg/kg relative to control. Format: functional.
In experiment [3] the test system is Ehrlich. Kind of experiment: Antitumor activity against Ehrlich ascites carcinoma cells in mouse assessed as RBC count at 20 mg/kg after 14 days. Type of experiment: functional.
The test system of experiment [4] is Ehrlich. Kind of experiment: Antitumor activity against Ehrlich ascites carcinoma cells in mouse assessed as WBC count at 20 mg/kg after 14 days. Format: functional.
Experiment [5] has as its system Ehrlich. Kind of experiment: Antitumor activity against Ehrlich ascites carcinoma cells in mouse assessed as cell viability at 20 mg/kg after 5 days. Type of experiment: functional.
Experiment [6] has as its system Ehrlich. Kind of experiment: Antitumor activity against Ehrlich ascites carcinoma cells in mouse assessed as haemoglobin level at 20 mg/kg after 14 days. Format: functional.

What is called IC50 is the concentration that inhibits the measured activity by half. High values mean a need for much substance, low ones inhibition by little substance. Take `COc1cccc2c1C(=O)c1c(O)c3c(c(O)c1C2=O)C[C@@](O)(C(C)=O)C[C@@H]3O[C@H]1C[C@H](N)[C@H](O)[C@H](C)O1` [DAUNORUBICIN]: in experiment [1], the IC50 came out at 28 µg/mL (≈ 53.1 µM).
As for `O=c1[nH]cc(F)c(=O)[nH]1` [FLUOROURACIL], the Activity is listed as 42.8% in experiment [2]; 5.87 /10^6mm3 in experiment [3]; 14.7 /10^3mm3 in experiment [4]; 83.6 10^6/100microL in experiment [5]; 15.6% in experiment [6].
